From ChEMBL document CHEMBL4382193, “Discovery of Potent Irreversible Pan-Fibroblast Growth Factor Receptor (FGFR) Inhibitors” (J Med Chem, 2018)
The source made the active and inactive calls. The rule behind the calls is not given here.

Tests used:
[1] = molecular target: Fibroblast growth factor receptor 4 (Homo sapiens, UniProt P22455); assay: Inhibition of recombinant FGFR4 (unknown origin) using poly (Glu,Tyr) 4:1 as substrate after 60 mins by ELISA
[2] = Tmax in Sprague-Dawley rat at 10 mg/kg, po administered via gavage by HPLC-MS/MS analysis; assay type: ADME, organism-based; conditions: in vivo
[3] = Cmax in Sprague-Dawley rat at 10 mg/kg, po administered via gavage by HPLC-MS/MS analysis; assay type: ADME, organism-based; parameters: dose 10 mg/kg, route oral; conditions: in vivo
[4] = AUC in Sprague-Dawley rat at 10 mg/kg, po administered via gavage by HPLC-MS/MS analysis; assay type: ADME, organism-based; conditions: in vivo
[5] = Terminal half life in Sprague-Dawley rat at 10 mg/kg, po administered via gavage by HPLC-MS/MS analysis; assay type: ADME, organism-based; conditions: in vivo, read-out: beta t1/2 (converted)
[6] = molecular target: T1, Fibroblast growth factor receptor 2 (Homo sapiens, UniProt P21802); assay: Inhibition of recombinant FGFR2 (unknown origin) using poly (Glu,Tyr) 4:1 as substrate after 60 mins by ELISA
Target sequence in this assay (P21802 whole entry): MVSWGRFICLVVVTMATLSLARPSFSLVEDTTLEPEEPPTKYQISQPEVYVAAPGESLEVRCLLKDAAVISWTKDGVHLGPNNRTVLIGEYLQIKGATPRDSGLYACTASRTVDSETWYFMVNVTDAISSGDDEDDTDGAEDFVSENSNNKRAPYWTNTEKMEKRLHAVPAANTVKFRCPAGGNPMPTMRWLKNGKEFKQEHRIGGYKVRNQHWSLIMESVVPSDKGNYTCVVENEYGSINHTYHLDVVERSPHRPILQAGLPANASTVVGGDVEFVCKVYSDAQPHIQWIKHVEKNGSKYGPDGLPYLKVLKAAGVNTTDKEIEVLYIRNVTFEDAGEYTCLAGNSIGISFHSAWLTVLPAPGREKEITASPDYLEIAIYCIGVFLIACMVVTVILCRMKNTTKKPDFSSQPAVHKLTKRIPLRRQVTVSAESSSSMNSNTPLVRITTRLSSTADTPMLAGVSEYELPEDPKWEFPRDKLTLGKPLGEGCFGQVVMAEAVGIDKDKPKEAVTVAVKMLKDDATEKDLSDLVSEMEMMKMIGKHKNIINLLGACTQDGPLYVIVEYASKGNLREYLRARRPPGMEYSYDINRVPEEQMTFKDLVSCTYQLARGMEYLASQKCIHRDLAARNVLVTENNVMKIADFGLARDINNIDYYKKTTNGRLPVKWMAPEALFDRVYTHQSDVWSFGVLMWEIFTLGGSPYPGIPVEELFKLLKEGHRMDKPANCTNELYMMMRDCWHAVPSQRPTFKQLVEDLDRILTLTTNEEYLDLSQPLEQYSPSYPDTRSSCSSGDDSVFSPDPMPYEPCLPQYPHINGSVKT

[7] = molecular target: T2, Fibroblast growth factor receptor 3 (Homo sapiens, UniProt P22607); assay: Inhibition of recombinant FGFR3 (unknown origin) using poly (Glu,Tyr) 4:1 as substrate after 60 mins by ELISA
[8] = molecular target: Vascular endothelial growth factor receptor 2 (Homo sapiens, UniProt P35968); assay: Inhibition of recombinant VEGFR2 (unknown origin) using poly (Glu,Tyr) 4:1 as substrate after 60 mins by ELISA
[9] = molecular target: Platelet-derived growth factor receptor alpha (Homo sapiens, UniProt P16234); assay: Inhibition of recombinant PDGFRalpha (unknown origin) using poly (Glu,Tyr) 4:1 as substrate after 60 mins by ELISA
[10] = molecular target: Platelet-derived growth factor receptor beta (Homo sapiens, UniProt P09619); assay: Inhibition of recombinant PDGFRbeta (unknown origin) using poly (Glu,Tyr) 4:1 as substrate after 60 mins by ELISA
[11] = molecular target: ALK tyrosine kinase receptor (Homo sapiens, UniProt Q9UM73); assay: Inhibition of recombinant ALK (unknown origin) using poly (Glu,Tyr) 4:1 as substrate after 60 mins by ELISA
[12] = molecular target: Vascular endothelial growth factor receptor 1 (Homo sapiens, UniProt P17948); assay: Inhibition of recombinant FLT1 (unknown origin) using poly (Glu,Tyr) 4:1 as substrate after 60 mins by ELISA
[13] = molecular target: Proto-oncogene tyrosine-protein kinase Src (Homo sapiens, UniProt P12931); assay: Inhibition of recombinant c-SRC (unknown origin) using poly (Glu,Tyr) 4:1 as substrate after 60 mins by ELISA
[14] = molecular target: Receptor tyrosine-protein kinase erbB-2 (Homo sapiens, UniProt P04626); assay: Inhibition of recombinant ERBB2 (unknown origin) using poly (Glu,Tyr) 4:1 as substrate after 60 mins by ELISA
[15] = molecular target: Hepatocyte growth factor receptor (Homo sapiens, UniProt P08581); assay: Inhibition of recombinant c-MET (unknown origin) using poly (Glu,Tyr) 4:1 as substrate after 60 mins by ELISA
[16] = molecular target: Tyrosine-protein kinase ABL1 (Homo sapiens, UniProt P00519); assay: Inhibition of recombinant ABL (unknown origin) using poly (Glu,Tyr) 4:1 as substrate after 60 mins by ELISA
[17] = molecular target: Epidermal growth factor receptor (Homo sapiens, UniProt P00533); assay: Inhibition of recombinant EGFR (unknown origin) using poly (Glu,Tyr) 4:1 as substrate after 60 mins by ELISA
[18] = molecular target: Ephrin type-A receptor 2 (Homo sapiens, UniProt P29317); assay: Inhibition of recombinant EPHA2 (unknown origin) using poly (Glu,Tyr) 4:1 as substrate after 60 mins by ELISA
[19] = molecular target: Receptor tyrosine-protein kinase erbB-4 (Homo sapiens, UniProt Q15303); assay: Inhibition of recombinant ERBB4 (unknown origin) using poly (Glu,Tyr) 4:1 as substrate after 60 mins by ELISA
[20] = molecular target: Insulin-like growth factor 1 receptor (Homo sapiens, UniProt P08069); assay: Inhibition of recombinant IGF1R (unknown origin) using poly (Glu,Tyr) 4:1 as substrate after 60 mins by ELISA
Sequence of Insulin-like growth factor 1 receptor (P08069 31-736 limits assumed): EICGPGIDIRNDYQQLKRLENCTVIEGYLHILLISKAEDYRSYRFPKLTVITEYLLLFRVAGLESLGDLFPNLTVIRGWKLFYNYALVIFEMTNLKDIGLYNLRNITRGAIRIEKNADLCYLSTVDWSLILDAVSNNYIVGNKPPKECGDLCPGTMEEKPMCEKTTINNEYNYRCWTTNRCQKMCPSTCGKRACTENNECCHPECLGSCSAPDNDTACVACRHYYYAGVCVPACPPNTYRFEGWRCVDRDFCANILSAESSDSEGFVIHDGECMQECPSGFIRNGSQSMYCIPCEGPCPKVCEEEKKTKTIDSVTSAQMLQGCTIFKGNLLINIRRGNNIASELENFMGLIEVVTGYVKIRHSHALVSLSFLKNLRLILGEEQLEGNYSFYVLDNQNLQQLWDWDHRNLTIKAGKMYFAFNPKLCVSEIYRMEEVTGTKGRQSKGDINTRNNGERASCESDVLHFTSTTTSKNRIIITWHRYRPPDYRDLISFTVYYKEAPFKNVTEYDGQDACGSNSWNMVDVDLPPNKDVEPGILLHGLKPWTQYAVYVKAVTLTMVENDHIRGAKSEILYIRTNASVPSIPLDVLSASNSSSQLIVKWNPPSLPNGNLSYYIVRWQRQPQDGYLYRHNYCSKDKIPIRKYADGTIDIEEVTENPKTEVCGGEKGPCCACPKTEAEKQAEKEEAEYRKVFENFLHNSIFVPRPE
Sequence of Insulin-like growth factor 1 receptor (P08069 741-1367 limits assumed): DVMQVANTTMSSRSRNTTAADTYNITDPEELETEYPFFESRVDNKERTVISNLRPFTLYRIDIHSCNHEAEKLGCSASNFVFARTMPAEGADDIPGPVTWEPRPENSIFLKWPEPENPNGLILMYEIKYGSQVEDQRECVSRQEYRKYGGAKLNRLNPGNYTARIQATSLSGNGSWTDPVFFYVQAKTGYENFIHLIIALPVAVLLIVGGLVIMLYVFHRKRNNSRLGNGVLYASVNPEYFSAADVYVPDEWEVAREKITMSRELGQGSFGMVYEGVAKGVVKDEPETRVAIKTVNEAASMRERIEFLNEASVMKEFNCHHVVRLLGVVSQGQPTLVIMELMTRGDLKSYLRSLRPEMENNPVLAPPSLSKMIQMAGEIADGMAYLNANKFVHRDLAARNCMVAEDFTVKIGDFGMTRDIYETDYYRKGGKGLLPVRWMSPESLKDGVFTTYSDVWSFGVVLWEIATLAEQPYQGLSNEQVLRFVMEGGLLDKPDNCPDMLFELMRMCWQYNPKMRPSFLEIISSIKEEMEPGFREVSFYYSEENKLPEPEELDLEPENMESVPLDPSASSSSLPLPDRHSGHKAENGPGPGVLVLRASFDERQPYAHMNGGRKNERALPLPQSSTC

[21] = molecular target: Tyrosine-protein kinase BTK (Homo sapiens, UniProt Q06187); assay: Inhibition of recombinant BTK (unknown origin) using poly (Glu,Tyr) 4:1 as substrate after 60 mins by ELISA
[22] = species: Homo sapiens; assay: Selectivity ratio of IC50 for recombinant VEGFR2 (unknown origin) to IC50 for recombinant FGFR1 (unknown origin)
[23] = molecular target: T3, Fibroblast growth factor receptor 1 (Homo sapiens, UniProt P11362); assay: Inhibition of FGFR1 phosphorylation in human KG1 cells at 5 to 20 nM after 2 hrs by Western blot analysis; assay type: cell-based
Target sequence in this assay (P11362 22-822 limits assumed): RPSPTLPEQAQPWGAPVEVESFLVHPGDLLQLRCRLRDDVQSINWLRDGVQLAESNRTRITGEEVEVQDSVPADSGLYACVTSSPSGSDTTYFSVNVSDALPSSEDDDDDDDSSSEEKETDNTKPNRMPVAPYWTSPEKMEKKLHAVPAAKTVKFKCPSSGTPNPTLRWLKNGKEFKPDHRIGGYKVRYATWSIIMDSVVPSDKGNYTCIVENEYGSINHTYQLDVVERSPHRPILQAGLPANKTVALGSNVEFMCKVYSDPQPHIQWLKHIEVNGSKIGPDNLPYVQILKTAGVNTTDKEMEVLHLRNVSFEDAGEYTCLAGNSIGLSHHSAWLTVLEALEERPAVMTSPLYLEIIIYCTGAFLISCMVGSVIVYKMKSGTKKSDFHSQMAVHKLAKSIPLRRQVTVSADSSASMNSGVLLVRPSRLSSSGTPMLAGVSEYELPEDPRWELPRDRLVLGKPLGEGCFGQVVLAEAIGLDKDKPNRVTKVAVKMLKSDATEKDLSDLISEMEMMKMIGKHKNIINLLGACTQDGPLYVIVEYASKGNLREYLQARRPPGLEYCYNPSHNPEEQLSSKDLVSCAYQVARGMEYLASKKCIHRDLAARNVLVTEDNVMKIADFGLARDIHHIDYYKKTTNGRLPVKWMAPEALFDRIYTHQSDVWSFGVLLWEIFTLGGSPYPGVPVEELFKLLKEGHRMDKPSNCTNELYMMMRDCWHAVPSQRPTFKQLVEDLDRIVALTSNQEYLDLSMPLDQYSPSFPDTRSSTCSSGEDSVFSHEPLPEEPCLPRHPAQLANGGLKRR

[24] = molecular target: T3, Fibroblast growth factor receptor 1; assay: Inhibition of FGFR1 in human KG1 cells assessed as reduction in PLCgamma phosphorylation at 5 to 20 nM after 2 hrs by Western blot analysis; assay type: cell-based
Target sequence in this assay (P11362 22-822 limits assumed): as above

[25] = molecular target: T3, Fibroblast growth factor receptor 1; assay: Inhibition of FGFR1 in human KG1 cells assessed as reduction in ERK phosphorylation at 5 to 20 nM after 2 hrs by Western blot analysis; assay type: cell-based
Target sequence in this assay (P11362 22-822 limits assumed): as above

[26] = molecular target: T1, Fibroblast growth factor receptor 2; assay: Inhibition of FGFR2 phosphorylation in human SNU16 cells at 0.1 to 10 nM after 2 hrs by Western blot analysis; assay type: cell-based
Target sequence in this assay (P21802 22-821 limits assumed): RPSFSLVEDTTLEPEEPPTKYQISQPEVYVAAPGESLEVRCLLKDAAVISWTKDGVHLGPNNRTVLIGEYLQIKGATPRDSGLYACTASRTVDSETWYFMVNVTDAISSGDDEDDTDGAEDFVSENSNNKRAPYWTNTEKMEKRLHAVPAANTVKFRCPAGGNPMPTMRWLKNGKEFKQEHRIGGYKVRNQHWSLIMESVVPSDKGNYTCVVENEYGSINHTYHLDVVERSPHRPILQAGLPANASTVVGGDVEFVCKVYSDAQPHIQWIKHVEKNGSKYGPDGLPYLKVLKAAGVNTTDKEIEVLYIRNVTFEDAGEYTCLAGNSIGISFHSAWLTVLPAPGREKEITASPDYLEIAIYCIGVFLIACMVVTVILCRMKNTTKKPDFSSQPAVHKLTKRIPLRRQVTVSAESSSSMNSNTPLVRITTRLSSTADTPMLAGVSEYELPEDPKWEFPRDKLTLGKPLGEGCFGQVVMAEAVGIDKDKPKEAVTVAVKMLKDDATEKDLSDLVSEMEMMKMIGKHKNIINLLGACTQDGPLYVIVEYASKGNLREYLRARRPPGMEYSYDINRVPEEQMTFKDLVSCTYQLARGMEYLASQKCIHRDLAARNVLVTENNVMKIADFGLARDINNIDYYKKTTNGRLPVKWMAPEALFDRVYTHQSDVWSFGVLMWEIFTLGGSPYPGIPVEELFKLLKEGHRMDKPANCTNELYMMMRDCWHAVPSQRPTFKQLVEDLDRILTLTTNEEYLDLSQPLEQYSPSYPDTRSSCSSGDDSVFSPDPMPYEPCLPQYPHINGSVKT

[27] = molecular target: T1, Fibroblast growth factor receptor 2; assay: Inhibition of FGFR2 in human SNU16 cells assessed as reduction in PLCgamma phosphorylation at 0.1 to 10 nM after 2 hrs by Western blot analysis; assay type: cell-based
Target sequence in this assay (P21802 22-821 limits assumed): as above

[28] = molecular target: T1, Fibroblast growth factor receptor 2; assay: Inhibition of FGFR2 in human SNU16 cells assessed as reduction in ERK phosphorylation at 0.1 to 10 nM after 2 hrs by Western blot analysis; assay type: cell-based
Target sequence in this assay (P21802 22-821 limits assumed): as above

[29] = molecular target: T2, Fibroblast growth factor receptor 3; assay: Inhibition of FGFR3 phosphorylation in human UMUC14 cells at 1 to 100 nM after 2 hrs by Western blot analysis; assay type: cell-based
Target sequence in this assay (P22607 23-806 limits assumed): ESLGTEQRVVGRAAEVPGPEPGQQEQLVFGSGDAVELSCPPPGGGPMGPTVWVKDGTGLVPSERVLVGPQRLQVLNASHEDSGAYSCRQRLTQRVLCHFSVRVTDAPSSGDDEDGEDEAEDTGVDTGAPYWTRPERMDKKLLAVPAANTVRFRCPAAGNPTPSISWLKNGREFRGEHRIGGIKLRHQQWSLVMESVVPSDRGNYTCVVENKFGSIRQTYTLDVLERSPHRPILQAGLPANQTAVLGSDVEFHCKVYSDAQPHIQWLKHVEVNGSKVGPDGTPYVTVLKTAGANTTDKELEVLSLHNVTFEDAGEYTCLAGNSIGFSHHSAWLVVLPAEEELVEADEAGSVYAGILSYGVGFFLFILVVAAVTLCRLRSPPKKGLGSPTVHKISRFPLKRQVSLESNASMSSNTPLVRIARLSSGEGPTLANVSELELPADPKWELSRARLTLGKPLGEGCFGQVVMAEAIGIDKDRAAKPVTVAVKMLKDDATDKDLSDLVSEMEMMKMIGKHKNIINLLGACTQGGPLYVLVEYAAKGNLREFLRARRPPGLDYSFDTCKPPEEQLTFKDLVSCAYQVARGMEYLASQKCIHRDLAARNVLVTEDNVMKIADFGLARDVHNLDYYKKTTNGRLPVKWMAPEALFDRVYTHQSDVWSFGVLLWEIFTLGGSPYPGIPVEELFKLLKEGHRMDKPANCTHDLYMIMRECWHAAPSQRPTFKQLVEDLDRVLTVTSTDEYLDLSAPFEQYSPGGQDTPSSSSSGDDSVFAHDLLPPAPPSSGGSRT

[30] = molecular target: T2, Fibroblast growth factor receptor 3; assay: Inhibition of FGFR3 in human UMUC14 cells assessed as reduction in PLCgamma phosphorylation at 1 to 100 nM after 2 hrs by Western blot analysis; assay type: cell-based
Target sequence in this assay (P22607 23-806 limits assumed): as above

[31] = molecular target: T2, Fibroblast growth factor receptor 3; assay: Inhibition of FGFR3 in human UMUC14 cells assessed as reduction in ERK phosphorylation at 1 to 100 nM after 2 hrs by Western blot analysis; assay type: cell-based
Target sequence in this assay (P22607 23-806 limits assumed): as above

[32] = molecular target: T3, Fibroblast growth factor receptor 1; assay: Irreversible inhibition of FGFR1 (unknown origin) at 100 times IC50 concentration using 5-FAM-KKSRGDYMTMQIG-CONH2 peptide as substrate preincubated for 30 mins followed 100 fold dilution with substrate and ATP and measured for 1 hr
Target sequence in this assay (P11362 22-822 limits assumed): as the sequence (P11362 22-822 limits assumed) above

[33] = tested on: NCI-H1581; assay: Antitumor activity against FGFR1 amplified human NCI-H1581 cells xenografted in po dosed nude mouse assessed as tumor growth inhibition administered once daily for 14 days; assay type: functional, organism-based
[34] = tested on: SNU-16; assay: Antitumor activity against FGFR2 amplified human SNU16 cells xenografted in po dosed nude mouse assessed as tumor growth inhibition administered once daily for 21 days; assay type: functional, organism-based
[35] = tested on: NCI-H1581; assay: Antitumor activity against FGFR1 amplified human NCI-H1581 cells xenografted in nude mouse assessed as tumor growth inhibition at 100 mg/kg, po administered once daily for 14 days relative to control; assay type: functional; conditions: 336 h, read-out: TGI
[36] = tested on: SNU-16; assay: Antitumor activity against FGFR2 amplified human SNU16 cells xenografted in nude mouse assessed as tumor growth inhibition at 50 mg/kg, po administered once daily for 21 days relative to control; assay type: functional; conditions: SNU-16, po, 504 h, read-out: TGI
[37] = Toxicity in nude mouse xenografted with FGFR1 amplified human NCI-H1581 cells assessed as weight loss at 50 to 100 mg/kg, po administered once daily for 14 days relative to control; assay type: organism-based; conditions: in vivo, 336 h
[38] = Toxicity in nude mouse xenografted with FGFR2 amplified human SNU16 cells assessed as weight loss at 25 to 50 mg/kg, po administered once daily for 21 days relative to control; assay type: organism-based; conditions: in vivo, 504 h
[39] = molecular target: T3, Fibroblast growth factor receptor 1
Description: Inhibition of recombinant FGFR1 (unknown origin) using poly (Glu,Tyr) 4:1 as substrate after 60 mins by ELISA

[40] = tested on: NCI-H1581; assay: cells; conditions: Homo sapiens, NCI-H1581, 72 h
Description: Antiproliferative activity against FGFR1 amplified human NCI-H1581 cells after 72 hrs by CCK8 or MTT assay

[41] = tested on: SNU-16; assay: cells; conditions: Homo sapiens, SNU-16, 72 h
Description: Antiproliferative activity against FGFR2 amplified human SNU16 cells after 72 hrs by CCK8 or MTT assay

[42] = tested on: OPM-2; assay: cells; conditions: Homo sapiens, OPM-2, 72 h
Description: Antiproliferative activity against FGFR3 amplified human OPM2 cells after 72 hrs by CCK8 or MTT assay

[43] = tested on: RT-112; assay: cells; conditions: Homo sapiens, RT-112, 72 h
Description: Antiproliferative activity against FGFR3 amplified human RT112 cells after 72 hrs by CCK8 or MTT assay

[44] = tested on: Huh-7; assay: cells; conditions: Homo sapiens, Huh-7, 72 h
Description: Antiproliferative activity against FGF19/FGFR4 expressing human HuH7 cells after 72 hrs by CCK8 or MTT assay

[45] = tested on: BaF3; assay: cells; conditions: Mus musculus, BaF3, 72 h
Description: Antiproliferative activity against mouse BAF3 cells expressing TEL-fused FGFR4 kinase after 72 hrs by CCK8 or MTT assay

[46] = tested on: BaF3; assay: cells; conditions: Mus musculus, BaF3, 72 h; remark: listed apart in the source
Description: Antiproliferative activity against mouse BAF3 cells expressing TEL-fused KDR kinase after 72 hrs by CCK8 or MTT assay

Q: With `C=CC(=O)N1CC[C@H](n2cc(-c3cc4cc(C)cc(OC)c4s3)c3c(N)ncnc32)C1` as the compound, how does the IC50 [1] read?
A: The IC50 was 0.0053 µM.

Q: What about the Tmax [2] of the same compound?
A: Its Tmax is 2.75 h.

Q: And the Cmax [3]?
A: Its Cmax is 77.7 ng/mL.

Q: What about the AUC [4] of the same compound?
A: The AUC was 277 ng·h/mL.

Q: And the half-life [5]?
A: Its half-life is 1.73 h.

Q: What about the IC50 [6] of the same compound?
A: The IC50 was 0.0008 µM.

Q: What about the IC50 [7] of the same compound?
A: Its IC50 is 0.0094 µM.

Q: And the IC50 [8]?
A: Its IC50 is 0.113 µM.

Q: What about the IC50 [9] of the same compound?
A: Its IC50 is > 1 µM.

Q: And the IC50 [10]?
A: Its IC50 is > 1 µM.

Q: What about the IC50 [11] of the same compound?
A: The IC50 was > 1 µM.

Q: What about the IC50 [12] of the same compound?
A: The IC50 was > 1 µM.

Q: And the IC50 [13]?
A: Its IC50 is > 1 µM.

Q: And the IC50 [14]?
A: Its IC50 is > 1 µM.

Q: What about the IC50 [15] of the same compound?
A: Its IC50 is > 1 µM.

Q: And the IC50 [16]?
A: Its IC50 is > 1 µM.

Q: And the IC50 [17]?
A: Its IC50 is > 1 µM.

Q: What about the IC50 [18] of the same compound?
A: The IC50 was > 1 µM.

Q: And the IC50 [19]?
A: Its IC50 is > 1 µM.

Q: And the IC50 [20]?
A: The IC50 was > 1 µM.

Q: What about the IC50 [21] of the same compound?
A: Its IC50 is > 1 µM.

Q: What about the Ratio IC50 [22] of the same compound?
A: The Ratio IC50 was > 350.

Q: And the inhibition [23]?
A: The inhibition was “Active”.

Q: What about the inhibition [24] of the same compound?
A: The inhibition was “Active”.

Q: What about the inhibition [25] of the same compound?
A: Its inhibition is “Active”.

Q: What about the inhibition [26] of the same compound?
A: The inhibition was “Active”.

Q: What about the inhibition [27] of the same compound?
A: Its inhibition is “Active”.

Q: What about the inhibition [28] of the same compound?
A: The inhibition was “Active”.

Q: And the inhibition [29]?
A: The inhibition was “Active”.

Q: And the inhibition [30]?
A: The inhibition was “Active”.

Q: What about the inhibition [31] of the same compound?
A: Its inhibition is “Active”.

Q: And the inhibition [32]?
A: Its inhibition is “Active”.

Q: And the TGI [33]?
A: Its TGI is “Dose-dependent effect”.

Q: And the TGI [34]?
A: The TGI was “Dose-dependent effect”.

Q: And the inhibition in vivo at 100 mg/kg [35]?
A: The inhibition in vivo at 100 mg/kg was 98.9%.

Q: What about the inhibition in vivo at 50 mg/kg [36] of the same compound?
A: Its inhibition in vivo at 50 mg/kg is 85.8%.

Q: What about the Activity [37] of the same compound?
A: Its Activity is “Non-Toxic”.

Q: What about the Activity [38] of the same compound?
A: The Activity was “Non-Toxic”.

Q: And the IC50 [39]?
A: Its IC50 is < 0.0003 µM.

Q: And the IC50 [40]?
A: Its IC50 is 0.0003 to 0.0005 µM.

Q: And the IC50 [41]?
A: Its IC50 is < 0.0001 µM.

Q: And the IC50 [42]?
A: The IC50 was < 0.0005 µM.

Q: And the IC50 [43]?
A: The IC50 was < 0.0005 µM.

Q: And the IC50 [44]?
A: The IC50 was < 0.0015 µM.

Q: What about the IC50 [45] of the same compound?
A: The IC50 was < 0.0046 µM.

Q: And the IC50 [46]?
A: Its IC50 is 0.293 µM.
